The subject of one series is human survivin mRNA. The series can be described thus: IC50 of dsRNA for survivin mRNA, dose response by quantitative RT-PCR ("D"). The format is cell-based. Particulars: Table 16; cell line not given; read-out: IC50 (nM) mRNA, dsRNA to human survivin. Here is the method: Representative parameters that can be studied include, for example, translation of survivin mRNAs or survivin protein synthesis; effect on surrogate markers; or any other parameter that is indicative of potential dsRNA therapeutic effectiveness that can be conveniently measured in vitro.
For western blot analysis, cells are plated in 10 cm tissue culture dishes (Falcon, #3003) at a density of 7.5×10^5 cells/dish. For RT-PCR analysis, 96-well plates (Corning Incorporated, #3596) are plated with 1×10^4 cells/well. Lipofectin (GIBCO/Invitrogen) transfection reagent is used at a concentration of 3 ul/ml OPTIMEM reduced serum medium (Gibco/Invitrogen)/100 nM siRNA duplex. Lipofectin reagent is incubated with OPTIMEM medium for 30 minutes prior to the addition of siRNA. The desired amount of siRNA is added and mixed. Further 1:1 dilutions are performed in OPTIMEM. Cells are washed twice with 1× phosphate buffered saline and then treated with the siRNA/Lipofectin mixture in OPTIMEM. After a 4 hr incubation period, OPTIMEM medium is replaced with complete growth medium. Cells are harvested after additional 16-20 hrs for Western blot or RT-PCR analysis.
Total RNA is isolated using RNeasy® 96 kit according to recommended protocol (Qiagen). Briefly, cells are washed with 200 ul PBS after removal of growth medium. Following washing, 100 μl buffer RLT is added, plate is shaken vigorously for about 20 seconds. To each well 100 μl 70% ethanol are added and mixed by pipetting up and down three times. Samples are then applied into the wells of the RNeasy 96 plate placed in the QIAvac top base of the QIAvac 96 manifold, which is attached to a vacuum source. Vacuum is applied for 30 seconds or until transfer is complete. To each well 80 μl of DNase I incubation mix (20 mM Tris-HCl, pH 8.4, 2 mM MgCl2, 50 mM KCl and 225 Units/ml DNase I from Invitrogen) is added and incubated at room temperature for 30 minutes. Buffer RW1 (1 ml/well) is added and the vacuum is applied for 30 seconds. Buffer RPE (1 ml/well) is added to each well and vacuum is applied for 30 seconds. Washing steps with buffer RW1 and RPE1 are repeated once more. The plate is then removed from the manifold and blotted dry on paper towels. The plate is placed back in the QIAvac manifold and the vacuum is applied for 10 minutes. To elute RNA 30 μl of RNase-free water is added directly onto the membrane of each well, incubated for 1 minutes and vacuum is applied for 30 seconds. In order to maximize the recovery of total RNA the elution step is repeated with additional 30 μl/well RNase-free water.
Quantitation of survivin and GAPDH mRNA levels is determined by real-time quantitative RT-PCR using the ABI PRISM® 7900 Sequence Detection System (Applied Biosystems). RT-PCR reactions are carried out by adding 15 ul of TaqMan One Step PCR Master Mix (Applied Biosystems, #4309169) reagents (containing 100 nM each of forward primer and reverse primer, and 200 nM probe) to 96-well plates with 10 μl total RNA. For human survivin, the forward PCR primer is: 5′[…]3′ (SEQ ID NO: 186), and the reverse primer is: 5′[…]3′ (SEQ ID NO: 187). The survivin TaqMan® probe used is 5′(FAM)[…]3′ (SEQ ID NO: 188) (Biosearch Technologies, Inc.). This primer-probe set, designed to SEQ ID No 14 was used for all experiments in Examples 15 to the end. For human GAPDH, TaqMan GAPDH Control Reagent Kit is used (Applied Biosystems, #402869). The percentage inhibition for each samples are calculated by comparing the survivin/GAPDH mRNA ratio for the sample to survivin/GAPDH mRNA ratio for the untreated control. The IC50 is derived from the non-linear regression analysis of the percentage inhibition data using GraphPad Prism software (GraphPad Software).
The constructs tested comprise the antisense strand in the 5′-3′ orientation, and the sense strand in the 5′ to 3′ orientation, In Table 15, “D” is dose response (mRNA levels) and “W” is Western blot. […]

Series [1] can be described thus: Stability of siRNA constructs in mouse plasma, capillary gel electrophoresis. The format is in vitro ADME. Particulars: for Stability (t ½ in hours): Table 17, 25% mouse plasma, 37° C., pseudo first-order half-life of intact siRNA duplex. The method, then:
Intact duplex RNA was analyzed from diluted mouse-plasma using an extraction and capillary electrophoresis method similar to those previously described (Leeds, J. M., et al., 1996, Anal. Biochem., 235, 36-43; Geary, R. S., et al., 1999, Anal. Biochem., 274, 241-248. Heparin-treated mouse plasma, from 3-6 month old female Balb/c mice (Charles River Labs) was thawed from −80° C. and diluted to 25% (v/v) with phosphate buffered saline (140 mM NaCl, 3 mM KCl, 2 mM potassium phosphate, 10 mM sodium phosphate). Approximately 10 nmol of pre-annealed siRNA, at a concentration of 100 μM, was added to the 25% plasma and incubated at 37° C. for 0, 15, 30, 45, 60, 120, 180, 240, 360, and 420 minutes. Aliquots were removed at the indicated time, treated with EDTA to a final concentration of 2 mM, and placed on ice at 0° C. until analyzed by capillary gel electrophoresis (Beckman P/ACE MDQ-UV with eCap DNA Capillary tube). The area of the siRNA duplex peak was measured and used to calculate the percent of intact siRNA remaining. Adenosine triphosphate (ATP) was added at a concentration of 2.5 mM to each injection as an internal calibration standard. A zero time point was taken by diluting siRNA in phosphate buffered saline followed by capillary electrophoresis. Percent intact siRNA was plotted against time, allowing the calculation of a pseudo first-order half-life.

Broadly, the IC50 is the concentration needed to halve the response being measured. As to “ISIS 355713_355714: blunt-ended siRNA duplex, alternating 2'-O-methyl/2'-fluoro in opposing register: antisense 355713, sense 355714 (antisense UUUGAAAAUGUUGAUCUCC; sense GGAGAUCAACAUUUUCAAA; chemistry not fully specified)”, the concentration for half-maximal inhibition (IC50) in the series with human survivin mRNA is 0.06 nM. Moreover, in series [1], the “Stability (t ½ in hours)” value is over 4 h. Moreover, the “stability of construct in serum (mouse plasma)” value in series [1] (in words) was “remains relatively unchanged and is stable in serum”.

Turning to “ISIS 353537_343868: dsRNA duplex: antisense 353537 (4'-thio), sense 343868 (unmodified) (antisense UUUGAAAAUGUUGAUCUCC; sense GGAGAUCAACAUUUUCAAA; 4'-thio antisense, chemistry not fully specified)”, the IC50 in the series on human survivin mRNA came to 0.18 nM. In addition, in series [1], the “Stability (t ½ in hours)” value is 3 h.

For the origin of these results see US20070161547A1, “Modulation of survivin expression” (priority 2003, published 2007).
